Assay results taken from EP1203771A1, “REMEDIES OR PREVENTIVES FOR FREQUENT URINATION OR URINARY INCONTINENCE” (TORAY INDUSTRIES, INC., priority 1999, dated 2001).
Counter-ions that a name gives are not always drawn.

Tested on: Rhythmic Bladder Contraction of Rats
Experiment: Effect on rhythmic bladder contraction of rats (urethane-anesthetized, saline infusion into bladder, intravesical pressure)
Type: in vivo
Settings: anesthetized female SD rats
Protocol: Effect on Rhythmic Bladder Contraction of Rats
Female SD rats were anesthetized with an intraperitoneal injection of urethane (1.0 g/kg). A polyethylene tube was inserted from urethral opening to the bladder and the tube was fixed by ligating. Physiological saline was appropriately infused via the tube (rate of infusion: about 0.2 ml/min; maximum dose: about 1.5 ml/rat) to induce rhythmic contraction of bladder. The rhythmic contraction of bladder was monitored by measuring the intravesical pressure through the polyethylene tube inserted into the bladder. After confirming that stable rhythmic contraction occurred at least 10 times, each test compound was intravenously administered at a doseof 1 ml/kg. If the intravesical pressure became, within 10 minutes from the administration of the test compound, not more than 50% of the intravesical pressure at the time point immediately after the administration of the test compound, it was judged that […], and the time period until the intravesical pressure again became not less than 50% was defined as the rhythmic bladder contraction-inhibiting time. As the solvent for administration of the test compounds, 5% xylitol was used for test Compounds 1, 2, 3, 4, 5, 11, 12, 21, 23 and 24; physiological saline was used for test Compounds 6, 9, 10, 13, 14, 15, 16, 17, 18, 19, 20 and 22; 10% ethanol solution was used for test Compound 7; and 10% DMSO solution was used for test Compound 8. The solvents 5% xylitol solution, 10% ethanol solution and 10% DMSO solution, each of which is said to somewhat influence on the rhythmic bladder contraction-inhibiting time, were also tested at the dose of 1 ml/kg. […]

[1] = 10 mg/kg intravenously, solvent 5% xylitol
[2] = 10 mg/kg intravenously, solvent physiological saline
[3] = 3 mg/kg intravenously, solvent physiological saline
[4] = 1 mg/kg intravenously, solvent physiological saline
[5] = 30 mg/kg intravenously, solvent 5% xylitol

CN1CC[C@]23c4c5ccc(O)c4O[C@H]2c2nc4ccccc4c(N)c2C[C@@]3(O)[C@H]1C5 [Compound 2, 17-methyl-6,7-dehydro-4,5α-epoxy-3,14β-dihydroxy-6,7,2',3'-(4'-aminoquinolino)morphinan methanesulfonic acid salt]
Mean Rhythmic Bladder Contraction-inhibiting Time [1]: 4.5 min

Oc1ccc2c3c1O[C@H]1c4nc5ccccc5cc4C[C@@]4(O)[C@@H](C2)N(CCc2ccccc2)CC[C@]314 [Compound 7, 17-phenethyl-6,7-dehydro-4,5 α-epoxy-3,14β-dihydroxy-6,7,2',3'-quinolinomorphinan methanesulfonic acid salt]
Mean Rhythmic Bladder Contraction-inhibiting Time (5 mg/kg intravenously, solvent 10% ethanol solution): 17.1 min

CN1CC[C@]23c4c5ccc(O)c4O[C@H]2c2nc4c(Cl)cccc4cc2C[C@@]3(O)[C@H]1C5 [Compound 10, 17-methyl-6,7-dehydro-4,5α-epoxy-3,14β-dihydroxy-6,7,2',3'-(8'-chloroquinolino)morphinan methanesulfonic acid salt]
Mean Rhythmic Bladder Contraction-inhibiting Time [2]: 7.4 min

Cc1ccc(CCN2CC[C@]34c5c6ccc(O)c5O[C@H]3c3nc5ccccc5cc3C[C@@]4(O)[C@H]2C6)cc1 [Compound 23, 17-(4-methylphenyl)ethyl-6,7-dehydro-4,5α-epoxy-3,14β-dihydroxy-6,7,2',3'-quinolinomorphinan methanesulfonic acid salt]
Mean Rhythmic Bladder Contraction-inhibiting Time [1]: 9.2 min

Oc1ccc2c3c1O[C@H]1c4nc5ccccc5cc4C[C@@]4(O)[C@@H](C2)N(CC2CC2)CC[C@]314 [Compound 21, 17-cyclopropylmethyl-6,7-dehydro-4,5α-epoxy-3,14β-dihydroxy-6,7,2',3'-quinolinomorphinan methanesulfonic acid salt]
Mean Rhythmic Bladder Contraction-inhibiting Time [1]: 10.0 min

Cc1ccc2nc3c(cc2c1)C[C@@]1(O)[C@H]2Cc4ccc(O)c5c4[C@@]1(CCN2C)[C@H]3O5 [Compound 14, 17-methyl-6,7-dehydro-4,5α-epoxy-3,14β-dihydroxy-6,7,2',3'-(6'-methylquinolino)morphinan methanesulfonic acid salt]
Mean Rhythmic Bladder Contraction-inhibiting Time [3]: 12.3 min

COc1ccc2c3c1O[C@H]1c4nc5ccccc5cc4C[C@@]4(O)[C@@H](C2)N(C)CC[C@]314 [Compound 19, 17-methyl-6,7-dehydro-4,5α-epoxy-3-methoxy-14β-hydroxy-6,7,2',3'-quinolinomorphinan tartaric acid salt]
Mean Rhythmic Bladder Contraction-inhibiting Time [4]: 7.7 min

CC(=O)Oc1ccc2c3c1O[C@H]1c4nc5ccccc5cc4C[C@@]4(OC(C)=O)[C@@H](C2)N(C)CC[C@]314 [Compound 16, 17-methyl-6,7-dehydro-4,5α-epoxy-3,14β-diacetoxy-6,7,2',3'-quinolinomorphinan tartaric acid salt]
Mean Rhythmic Bladder Contraction-inhibiting Time (0.3 mg/kg intravenously, solvent physiological saline): 15.0 min

CN1CC[C@]23c4c5ccc(O)c4O[C@H]2c2nc4ccccc4c(O)c2C[C@@]3(O)[C@H]1C5 [Compound 5, 17-methyl-6,7-dehydro-4,5α-epoxy-3,14β-dihydroxy-6,7,2',3'-(4'-hydroxyquinolino)morphinan methanesulfonic acid salt]
Mean Rhythmic Bladder Contraction-inhibiting Time [5]: 5.7 min

CN1CC[C@]23c4c5ccc(O)c4O[C@H]2c2nc4c(F)cccc4cc2C[C@@]3(O)[C@H]1C5 [Compound 15, 17-methyl-6,7-dehydro-4,5α-epoxy-3,14β-dihydroxy-6,7,2',3'-(8'-fluoroquinolino)morphinan tartaric acid salt]
Mean Rhythmic Bladder Contraction-inhibiting Time [4]: 10.7 min

CC(=O)O[C@@]12Cc3cc4ccccc4nc3[C@@H]3Oc4c(O)ccc5c4[C@@]31CCN(C)[C@@H]2C5 [Compound 17, 17-methyl-6,7-dehydro-4,5α-epoxy-3-hydroxy-14β-acetoxy-6,7,2',3'-quinolinomorphinan tartaric acid salt]
Mean Rhythmic Bladder Contraction-inhibiting Time [4]: 7.4 min

Oc1ccc2c3c1O[C@H]1c4nc5ccccc5cc4C[C@@]4(O)[C@@H](C2)N(CCc2cccs2)CC[C@]314 [Compound 8, 17-(2-thienyl)ethyl-6,7-dehydro-4,5α-epoxy-3,14β-dihydroxy-6,7,2',3'-quinolinomorphinan methanesulfonic acid salt]
Mean Rhythmic Bladder Contraction-inhibiting Time (10 mg/kg intravenously, solvent 10% DMSO solution): 19.5 min

Cc1c2c(nc3ccccc13)[C@@H]1Oc3c(O)ccc4c3[C@@]13CCN(C)[C@H](C4)[C@]3(O)C2 [Compound 4, 17-methyl-6,7-dehydro-4,5α-epoxy-3,14β-dihydroxy-6,7,2',3'-(4'-methylquinolino)morphinan methanesulfonic acid salt]
Mean Rhythmic Bladder Contraction-inhibiting Time [1]: 13.9 min

O=C1Nc2c3c(nc4cccc1c24)[C@@H]1Oc2c(O)ccc4c2[C@@]12CCN(CC1CC1)[C@H](C4)[C@]2(O)C3 [Compound 1, 17-cyclopropylmethyl-6,7-dehydro-4,5α-epoxy-3,14β-dihydroxy-6,7,2',3'-[4',5'-[imino(oxomethano)]quinolino]morphinan hydrochloric acid salt]
Mean Rhythmic Bladder Contraction-inhibiting Time [5]: 6.2 min

CN1CC[C@]23c4c5ccc(O)c4O[C@H]2c2nc4cccc(Cl)c4cc2C[C@@]3(O)[C@H]1C5 [Compound 12, 17-methyl-6,7-dehydro-4,5α-epoxy-3,14β-dihydroxy-6,7,2',3'-(5'-chloroquinolino)morphinan tartaric acid salt]
Mean Rhythmic Bladder Contraction-inhibiting Time (0.3 mg/kg intravenously, solvent 5% xylitol): 14.6 min

CN1CC[C@]23c4c5ccc(O)c4O[C@H]2c2nc4ccccc4cc2C[C@@]3(O)[C@H]1C5 [Compound 6, 17-methyl-6,7-dehydro-4,5α-epoxy-3,14β-dihydroxy-6,7,2',3'-quinolinomorphinane methanesulfonic acid salt]
Mean Rhythmic Bladder Contraction-inhibiting Time [3]: 24.1 min

CO[C@@]12Cc3cc4ccccc4nc3[C@@H]3Oc4c(O)ccc5c4[C@@]31CCN(C)[C@@H]2C5 [Compound 9, 17-methyl-6,7-dehydro-4,5 α-epoxy-3-hydroxy-14 β -methoxy-6,7,2',3'-quinolinomorphinan methanesulfonic acid salt]
Mean Rhythmic Bladder Contraction-inhibiting Time [4]: 7.3 min

CN1CC[C@]23c4c5ccc(O)c4O[C@H]2c2nc4ccc(Cl)cc4cc2C[C@@]3(O)[C@H]1C5 [Compound 11, 17-methyl-6,7-dehydro-4,5α-epoxy-3,14β-dihydroxy-6,7,2',3'-(6'-chloroquinolino)morphinan methanesulfonic acid salt]
Mean Rhythmic Bladder Contraction-inhibiting Time [1]: 12.4 min

C=CCN1CC[C@]23c4c5ccc(O)c4O[C@H]2c2nc4ccccc4cc2C[C@@]3(O)[C@H]1C5 [Compound 22, 17-allyl-6,7-dehydro-4,5α-epoxy-3,14β-dihydroxy-6,7,2',3'-quinolinomorphinan methanesulfonic acid salt]
Mean Rhythmic Bladder Contraction-inhibiting Time [2]: 1.4 min

CC(=O)Oc1ccc2c3c1O[C@H]1c4nc5ccccc5cc4C[C@@]4(O)[C@@H](C2)N(C)CC[C@]314 [Compound 18, 17-methyl-6,7-dehydro-4,5α-epoxy-3-acetoxy-14β-hydroxy-6,7,2',3'-quinolinomorphinane tartaric acid salt]
Mean Rhythmic Bladder Contraction-inhibiting Time [4]: 6.6 min

Oc1ccc2c3c1O[C@H]1c4nc5ccccc5cc4C[C@@]4(O)[C@@H](C2)N(CCc2ccc(F)cc2)CC[C@]314 [Compound 24, 17-(4-fluorophenyl)ethyl-6,7-dehydro-4,5α-epoxy-3,14β-dihydroxy-6,7,2',3'-quinolinomorphinan methanesulfonic acid salt]
Mean Rhythmic Bladder Contraction-inhibiting Time [1]: 2.3 min

Cc1cccc2cc3c(nc12)[C@@H]1Oc2c(O)ccc4c2[C@@]12CCN(C)[C@H](C4)[C@]2(O)C3 [Compound 13, 17-methyl-6,7-dehydro-4,5α-epoxy-3,14β-dihydroxy-6,7,2',3'-(8'-methylquinolino)morphinan methanesulfonic acid salt]
Mean Rhythmic Bladder Contraction-inhibiting Time [4]: 6.5 min

CN1CC[C@]23c4c5cccc4O[C@H]2c2nc4ccccc4cc2C[C@@]3(O)[C@H]1C5 [Compound 20, 17-methyl-6,7-dehydro-4,5α-epoxy-14β-hydroxy-6,7,2',3'-quinolinomorphinan tartaric acid salt]
Mean Rhythmic Bladder Contraction-inhibiting Time [4]: 11.1 min

Oc1ccc2c3c1O[C@H]1c4nc5c(cc4C[C@@]4(O)[C@@H](C2)N(CC2CC2)CC[C@]314)cc1c2c(cccc25)CC1 [Compound 3, 17-cyclopropylmethyl-6,7-dehydro-4,5α-epoxy-3,14β-dihydroxy-6,7,2',3'-(6',6"-ethano-7',8'-benzoquinolino)morphinan methanesulfonic acid salt]
Mean Rhythmic Bladder Contraction-inhibiting Time (20 mg/kg intravenously, solvent 5% xylitol): 5.0 min
